Calls of active or inactive are those of the source. The calls are words filed in the database; no cut-off is given here.
Experiments:
IGROV-1 [1] = assay: Cell cycle arrest in human IGROV1 cells assessed as accumulation at >G2 phase at 15 uM after 24 hrs by propidium iodide staining based flow cytometry (reference value: 21%); type: functional
BXPC-3 [2] = assay: Induction of apoptosis in human BxPC3 cells assessed as late apoptotic cells at 15 uM after 24 hrs by Annexin V/7-AAD staining based flow cytometry (reference value: 9%); type: functional
IGROV-1 [3] = assay: Cell cycle arrest in human IGROV1 cells assessed as accumulation at S phase at 5 uM after 24 hrs by propidium iodide staining based flow cytometry (reference value: 29%); type: functional
OVCAR-5 = assay: Cytotoxicity against human OVCAR5 cells after 48 hrs by trypan blue assay; type: functional, cell-based
IGROV-1 [4] = assay: Cytotoxicity against human IGROV1 cells after 48 hrs by trypan blue assay; type: functional, cell-based
BXPC-3 [5] = assay: Cell cycle arrest in human BxPC3 cells assessed as accumulation at G1 phase at 15 uM after 24 hrs by propidium iodide staining based flow cytometry (reference value: 41%); type: functional
[6] = Growth inhibition of human MSC cells after 48 hrs by SRB assay; type: cell-based
[7] = (§1) Growth inhibition of HUVEC cells after 48 hrs by SRB assay; type: cell-based; conditions: human, HUVEC cells
HUVEC = assay: as §1; type: cell-based; conditions: human, huvec, 48 h
BXPC-3 [8] = assay: Cell cycle arrest in human BxPC3 cells assessed as accumulation at G1 phase at 50 uM after 24 hrs by propidium iodide staining based flow cytometry (reference value: 41%); type: functional
PC-3 [9] = assay: Cell cycle arrest in human PC3 cells assessed as accumulation at S phase at 50 uM after 24 hrs by propidium iodide staining based flow cytometry (reference value: 42%); type: functional
IGROV-1 [10] = assay: Induction of apoptosis in human IGROV1 cells assessed as cleaved caspase-3 containing cells at 5 uM after 24 hrs by FACS analysis (reference value: 4%); type: functional
BXPC-3 [11] = assay: Cell cycle arrest in human BxPC3 cells assessed as accumulation at G2 phase at 0.5 uM after 24 hrs by propidium iodide staining based flow cytometry (reference value: 12%); type: functional
PC-3 [12] = assay: Cell cycle arrest in human PC3 cells assessed as accumulation at < G1 phase at 5 uM after 24 hrs by propidium iodide staining based flow cytometry (reference value: 4%); type: functional
BXPC-3 [13] = assay: Induction of apoptosis in human BxPC3 cells assessed as total apoptotic death cells at 50 uM after 24 hrs by Annexin V/7-AAD staining based flow cytometry (reference value: 20%); type: functional
DU-145 = assay: Cytotoxicity against human DU145 cells after 48 hrs by trypan blue assay; type: functional, cell-based
SF-295 = assay: Growth inhibition of human SF295 cells after 48 hrs by SRB assay; type: functional; conditions: SF-295, 48 h
BXPC-3 [14] = assay: Cell cycle arrest in human BxPC3 cells assessed as accumulation at G2 phase at 50 uM after 24 hrs by propidium iodide staining based flow cytometry (reference value: 12%); type: functional
IGROV-1 [15] = assay: Cell cycle arrest in human IGROV1 cells assessed as accumulation at G2 phase at 15 uM after 24 hrs by propidium iodide staining based flow cytometry (reference value: 19%); type: functional
BXPC-3 [16] = assay: Cell cycle arrest in human BxPC3 cells assessed as accumulation at S phase at 15 uM after 24 hrs by propidium iodide staining based flow cytometry (reference value: 33%); type: functional
DMS-114 = assay: Growth inhibition of human DMS114 cells after 48 hrs by SRB assay; type: functional; conditions: DMS-114, 48 h
PC-3 [17] = assay: Induction of apoptosis in human PC3 cells assessed as late apoptotic cells at 15 uM after 24 hrs by Annexin V/7-AAD staining based flow cytometry (reference value: 2%); type: functional
BXPC-3 [18] = assay: Cell cycle arrest in human BxPC3 cells assessed as accumulation at < G1 phase at 15 uM after 24 hrs by propidium iodide staining based flow cytometry (reference value: 9%); type: functional
PC-3 [19] = assay: Induction of apoptosis in human PC3 cells assessed as late apoptotic cells at 50 uM after 24 hrs by Annexin V/7-AAD staining based flow cytometry (reference value: 2%); type: functional
H69AR = assay: Growth inhibition of human H69AR cells after 48 hrs by SRB assay; type: functional
BXPC-3 [20] = assay: Induction of apoptosis in human BxPC3 cells assessed as early apoptotic cells at 5 uM after 24 hrs by Annexin V/7-AAD staining based flow cytometry (reference value: 11%); type: functional
HCT-15 = assay: Growth inhibition of human HCT15 cells after 48 hrs by SRB assay; type: functional; conditions: HCT-15, 48 h
NCI-H69 = assay: Growth inhibition of human NCI-H69 cells after 48 hrs by SRB assay; type: functional; conditions: NCI-H69, 48 h
IGROV-1 [21] = assay: Cell cycle arrest in human IGROV1 cells assessed as accumulation at G1 phase at 0.5 uM after 24 hrs by propidium iodide staining based flow cytometry (reference value: 27%); type: functional
IGROV-1 [22] = assay: Induction of apoptosis in human IGROV1 cells assessed as total apoptotic death cells at 15 uM after 24 hrs by Annexin V/7-AAD staining based flow cytometry (reference value: 13%); type: functional
IGROV-1 [23] = assay: Cell cycle arrest in human IGROV1 cells assessed as accumulation at G1 phase at 15 uM after 24 hrs by propidium iodide staining based flow cytometry (reference value: 27%); type: functional
PC-3 [24] = assay: Cell cycle arrest in human PC3 cells assessed as accumulation at G2 phase at 15 uM after 24 hrs by propidium iodide staining based flow cytometry (reference value: 13%); type: functional
PC-3 [25] = assay: Induction of apoptosis in human PC3 cells assessed as healthy cells at 5 uM after 24 hrs by Annexin V/7-AAD staining based flow cytometry (reference value: 92%); type: functional
NCI-H460 = assay: Growth inhibition of human NCI-H460 cells after 48 hrs by SRB assay; type: functional; conditions: NCI-H460, 48 h
IGROV-1 [26] = assay: Cell cycle arrest in human IGROV1 cells assessed as accumulation at >G2 phase at 0.5 uM after 24 hrs by propidium iodide staining based flow cytometry (reference value: 21%); type: functional
IGROV-1 [27] = assay: Induction of apoptosis in human IGROV1 cells assessed as late apoptotic cells at 5 uM after 24 hrs by Annexin V/7-AAD staining based flow cytometry (reference value: 4%); type: functional
PC-3 [28] = assay: Cell cycle arrest in human PC3 cells assessed as accumulation at >G2 phase at 15 uM after 24 hrs by propidium iodide staining based flow cytometry (reference value: 6%); type: functional
PC-3 [29] = assay: Cell cycle arrest in human PC3 cells assessed as accumulation at < G1 phase at 50 uM after 24 hrs by propidium iodide staining based flow cytometry (reference value: 4%); type: functional
[30] = read-out: LC50 (the source's name)

For CN1CCN(c2ccc(C(c3ccccc3)C34CC5CC(CC(C5)C3)C4)cc2)CC1 (configuration not stated), the Activity (IGROV-1 [1]) was 20%, the Activity (BXPC-3 [2]) was 16% and the Activity (IGROV-1 [3]) was 29%. The Activity (OVCAR-5) was “Active”, the Activity (IGROV-1 [4]) was “Active” and the Activity (BXPC-3 [5]) was 51%. For the same molecule, the GI50 at 48 h ([6]; MSC cells) was 16.9 µM, the LC50 ([6]; msc, 48 h) was 91.56 µM and the TGI ([6]; msc, 48 h) was 54.21 µM. It also gave a GI50 at 48 h [7] of 4.52 µM, an LC50 (HUVEC) of 10.34 µM and a TGI (HUVEC) of 7.43 µM. For the same molecule, the Activity (BXPC-3 [8]) was 33%, the Activity (PC-3 [9]) was 34% and the Activity (IGROV-1 [10]) was 7%. The Activity (BXPC-3 [11]) was 12%, the Activity (PC-3 [12]) was 9% and the Activity (BXPC-3 [13]) was 48%. For the same molecule, the Activity (DU-145) was “Active”, the GI50 (SF-295) was 11 µM and the TGI (SF-295) was 48.1 µM. It also gave a CC50 (SF-295; [30]) of 85.2 µM, an Activity (BXPC-3 [14]) of 13% and an Activity (IGROV-1 [15]) of 21%. For the same molecule, the Activity (BXPC-3 [16]) was 19%, the GI50 (DMS-114) was 5.43 µM and the TGI (DMS-114) was 9.17 µM. It also gave a CC50 (DMS-114; [30]) of 100 µM, an Activity (PC-3 [17]) of 3% and an Activity (BXPC-3 [18]) of 8%. The Activity (PC-3 [19]) was 9%, the GI50 (H69AR) was 6.04 µM and the TGI (H69AR) was 18.4 µM. For the same molecule, the CC50 (H69AR; [30]) was 90.5 µM, the Activity (BXPC-3 [20]) was 17% and the GI50 (HCT-15) was 5.54 µM. It also gave an LC50 (HCT-15) of 100 µM, a TGI (HCT-15) of 12.8 µM and a GI50 (NCI-H69) of 7.09 µM. It also gave a CC50 (NCI-H69; [30]) of 100 µM, an Activity (IGROV-1 [21]) of 26% and an Activity (IGROV-1 [22]) of 33%. It also gave an Activity (IGROV-1 [23]) of 21%, an Activity (PC-3 [24]) of 9% and an Activity (PC-3 [25]) of 92%. The GI50 (NCI-H460) was 4.41 µM, the LC50 (concentration killing 50% of cells) (NCI-H460) was 100 µM and the TGI (NCI-H460) was 7.66 µM. For the same molecule, the Activity (IGROV-1 [26]) was 20%, the Activity (IGROV-1 [27]) was 3% and the Activity (PC-3 [28]) was 5%. It also gave an Activity (PC-3 [29]) of 10%.

— ChEMBL document CHEMBL2021794, “Synthesis, σ₁, σ₂-receptors binding affinity and antiproliferative action of new C1-substituted adamantanes” (Bioorg Med Chem, 2012)
